In ChEMBL document CHEMBL4043218, “Analysis of the binding sites of vitamin D 1α-hydroxylase (CYP27B1) and vitamin D 24-hydroxylase (CYP24A1) for the design of selective CYP24A1 inhibitors: Homology modelling, molecular dynamics simulations and identification of key binding requirements” (Bioorg Med Chem, 2017) one finds Ratio IC50 and IC50 data, which are given here for 4 compounds.

For assay [1], the species on record is Homo sapiens. As to the kind of experiment: Selectivity index, ratio of IC50 for human CYP24A1 to IC50 for human CYP27B1.
Assay [2] deals with T1, 1,25-dihydroxyvitamin D(3) 24-hydroxylase, mitochondrial (Homo sapiens, UniProt Q07973).
T1 sequence (Q07973 whole entry): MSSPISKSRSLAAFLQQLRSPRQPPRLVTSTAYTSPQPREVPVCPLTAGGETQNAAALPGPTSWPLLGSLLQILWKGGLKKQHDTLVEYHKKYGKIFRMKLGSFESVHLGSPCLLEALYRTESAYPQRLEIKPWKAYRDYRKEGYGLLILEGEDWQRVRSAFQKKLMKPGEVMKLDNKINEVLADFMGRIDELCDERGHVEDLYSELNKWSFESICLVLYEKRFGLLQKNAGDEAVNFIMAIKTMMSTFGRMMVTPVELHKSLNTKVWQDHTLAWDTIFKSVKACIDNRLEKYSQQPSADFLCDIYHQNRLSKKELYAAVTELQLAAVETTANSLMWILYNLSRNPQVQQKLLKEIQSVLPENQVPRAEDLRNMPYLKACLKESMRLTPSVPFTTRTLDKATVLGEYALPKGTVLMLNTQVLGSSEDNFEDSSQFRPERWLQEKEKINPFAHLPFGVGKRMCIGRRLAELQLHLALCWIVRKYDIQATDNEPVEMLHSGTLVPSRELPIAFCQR
Put plainly: Inhibition of human CYP24A1.

In assay [3] the target is T2, 25-hydroxyvitamin D-1 alpha hydroxylase, mitochondrial (Homo sapiens, UniProt O15528).
T2 sequence (O15528 whole entry): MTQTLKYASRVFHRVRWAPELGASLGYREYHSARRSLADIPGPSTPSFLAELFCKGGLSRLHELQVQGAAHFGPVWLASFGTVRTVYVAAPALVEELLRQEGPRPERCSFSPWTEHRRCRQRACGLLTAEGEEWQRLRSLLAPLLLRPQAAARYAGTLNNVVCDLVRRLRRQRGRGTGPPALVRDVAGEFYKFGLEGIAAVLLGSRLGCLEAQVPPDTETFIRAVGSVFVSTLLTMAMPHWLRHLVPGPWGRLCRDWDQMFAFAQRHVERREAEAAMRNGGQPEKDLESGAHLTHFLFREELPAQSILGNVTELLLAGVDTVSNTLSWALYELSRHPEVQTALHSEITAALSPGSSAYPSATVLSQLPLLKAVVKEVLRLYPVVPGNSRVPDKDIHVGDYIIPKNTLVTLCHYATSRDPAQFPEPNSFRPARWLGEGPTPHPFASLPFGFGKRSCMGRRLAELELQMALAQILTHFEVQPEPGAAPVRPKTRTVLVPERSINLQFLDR
As to the kind of experiment: Inhibition of human CYP27B1.

Assay [4] addresses T1, 1,25-dihydroxyvitamin D(3) 24-hydroxylase, mitochondrial. Put plainly: Inhibition of N-terminal MBP-tagged human CYP24A1 expressed in Escherichia coli assessed as reduction in […] activity incubated for 25 mins using Adx, AdR and 1,25(OH)2D3.
Assay [5] deals with T2, 25-hydroxyvitamin D-1 alpha hydroxylase, mitochondrial. Put plainly: Inhibition of human CYP27B1 expressed in Escherichia coli assessed as reduction in […] activity incubated for 25 mins using Adx, AdR and […].

Usually IC50 stands for the point on the concentration scale where inhibition reaches its midpoint. Turning to `CN(C)c1cccc2c(S(=O)(=O)NC(Cn3ccnc3)c3ccc(Cl)cc3Cl)cccc12` (configuration not stated), the Ratio IC50 in assay [1] worked out at 47. The half-inhibitory concentration (IC50) in assay [2] is 4.48 µM; in assay [3] it was 95.2 nM.

Take `Cc1[nH]nc(O)c1C(c1cccc(OCc2ccncc2)c1)c1c(O)n[nH]c1C`: the Ratio IC50 in assay [1] is 5. The IC50 in assay [4] turned out to be 2600 nM; in assay [5], 410 nM.

In the case of `CN(C)CCn1nnnc1SCC(O)(Cn1ccnc1)c1ccc(Cl)cc1Cl` (configuration not stated), the Ratio IC50 in assay [1] was 66. The results for the IC50 in assay [2] and in assay [3] were greater than 10 µM and 60.2 nM, respectively.

Regarding `Cc1[nH]nc(O)c1C(c1ccc(OCc2ccncc2)cc1)c1c(O)n[nH]c1C`, in assay [1], the Ratio IC50 came to 5. The IC50 in assay [4] is 2500 nM; in assay [5] it was 570 nM.
